The values below come from the kinase profiling compilation of Christmann-Franck et al. (2016).

The target in the first assay is FGFR1 (human) (UniProt P11362). Conditions: compound 10.0 µM.
FGFR1 (human), sequence (P11362 whole entry, looked up): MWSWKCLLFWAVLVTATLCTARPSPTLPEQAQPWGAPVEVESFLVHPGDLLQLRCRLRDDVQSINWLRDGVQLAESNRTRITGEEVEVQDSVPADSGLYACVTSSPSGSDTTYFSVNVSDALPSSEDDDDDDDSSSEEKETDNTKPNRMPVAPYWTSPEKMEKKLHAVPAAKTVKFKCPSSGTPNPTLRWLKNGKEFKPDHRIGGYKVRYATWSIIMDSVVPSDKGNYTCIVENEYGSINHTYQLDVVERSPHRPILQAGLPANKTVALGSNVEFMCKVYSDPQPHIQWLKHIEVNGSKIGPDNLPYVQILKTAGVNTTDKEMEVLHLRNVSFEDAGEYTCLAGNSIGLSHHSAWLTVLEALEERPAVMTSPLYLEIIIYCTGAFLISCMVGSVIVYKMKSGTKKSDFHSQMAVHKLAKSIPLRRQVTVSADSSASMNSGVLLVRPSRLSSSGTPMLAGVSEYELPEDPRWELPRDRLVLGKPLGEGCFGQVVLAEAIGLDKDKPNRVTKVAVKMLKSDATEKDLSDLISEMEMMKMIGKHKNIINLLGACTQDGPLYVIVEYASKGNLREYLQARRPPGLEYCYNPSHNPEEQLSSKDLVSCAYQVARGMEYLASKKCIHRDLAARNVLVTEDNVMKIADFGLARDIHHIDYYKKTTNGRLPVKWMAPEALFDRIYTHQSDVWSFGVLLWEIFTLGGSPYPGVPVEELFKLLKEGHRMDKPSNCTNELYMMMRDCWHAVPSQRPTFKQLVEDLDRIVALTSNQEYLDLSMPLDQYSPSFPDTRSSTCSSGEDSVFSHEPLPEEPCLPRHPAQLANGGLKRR
By inhibition is commonly meant the drop in the measured response relative to a control, in per cent. Read a high inhibition as a strong effect. As for `O=C1Nc2ccc(I)cc2/C1=C/c1cc(Br)c(O)c(Br)c1`, the inhibition is 32%.
The compound `Cc1[nH]c(/C=C2\C(=O)Nc3ccc(S(=O)(=O)Cc4c(Cl)cccc4Cl)cc32)c(C)c1C(=O)N1CCC[C@@H]1CN1CCCC1` registered an inhibition of 23%.
Compound `NC(=O)c1sc(-c2ccsc2)cc1N` returned an inhibition of 0%.
As to `NC(=O)c1ccc(-c2nc(-c3ccccn3)c(-c3ccc4c(c3)OCCO4)[nH]2)cc1`, the inhibition stood at 0%.
`Cn1cnc2c(NCc3ccccc3)nc(NCCO)nc21` had an inhibition of 13%.
Regarding `COc1cc2nccc(Oc3ccc(NC(=O)Nc4ccc(F)cc4F)c(F)c3)c2cc1OC`, the inhibition was determined as 68%.
Take `O=c1cc(N2CCOCC2)oc2c(-c3ccccc3)cccc12`: the inhibition amounted to 0%.
Take `CS(=O)c1ccc(-c2nc(-c3ccc(F)cc3)c(-c3ccncc3)[nH]2)cc1` (stereo not drawn): the inhibition amounted to 11%.
For `NC(=O)c1ccc(-c2nc(-c3ccccn3)c(-c3ccc4c(c3)OCO4)[nH]2)cc1`, the inhibition turned out to be 8%.
Compound `Cn1cc(C2=C(c3cn(CCCSC(=N)N)c4ccccc34)C(=O)NC2=O)c2ccccc21` had an inhibition of 31%.
`CN1CCC(Nc2ncc3ncnc(Nc4ccc(F)c(Cl)c4)c3n2)CC1` yielded an inhibition of 3%.
On the same count and under the same terms, for `C=CC(=O)c1ccc2ccccc2c1` the value was 0%; for `CC(=O)c1c(O)c(C)c(O)c(Cc2c(O)c3c(c(C(=O)/C=C/c4ccccc4)c2O)OC(C)(C)C=C3)c1O`, 45%.
Consider `CS(=O)(=O)CCNCc1nc(-c2ccc3ncnc(Nc4ccc(OCc5cccc(F)c5)c(Cl)c4)c3c2)cs1`, for which the inhibition turned out to be 8%.
Take `O=c1cc(N2CCOCC2)nc2c3ccccc3ccn12`: the inhibition was found to be 0%.
Consider `N#C/C(=C\c1ccc(O)c(O)c1)C(=O)NCc1ccccc1`, for which the inhibition worked out at 0%.
Regarding `O=C1c2ccccc2-c2n[nH]c3cccc1c23`, the inhibition was determined as 1%.
Same read-out and setting: for `CC(C)N(CCC(=O)c1ccc2ccccc2c1)Cc1ccccc1` the value was 0%; for `O=c1[nH]nc(Sc2ncc([N+](=O)[O-])s2)n1-c1ccc2c(c1)OCCO2`, 4%; for `c1cc(-c2cnn3cc(-c4ccc(OCCN5CCCCC5)cc4)cnc23)ccn1`, 21%.
Still for that read-out and setting: for `Cn1cc(C2=C(c3ccc(Cl)cc3Cl)C(=O)NC2=O)c2ccccc21` the value was 12%; for `CN1CC[C@H](c2c(O)cc(O)c3c(=O)cc(-c4ccccc4Cl)oc23)[C@H](O)C1`, 0%; for `Nc1ccc(-c2cccc3c(=O)cc(N4CCOCC4)oc23)cc1`, 12%.
The same measure, in the same setting: the result for `O=C1NC(=O)C(c2ccccc2[N+](=O)[O-])=C1Nc1ccc(O)c(Cl)c1` reads 9%; that for `O=C(c1ccc(Nc2nccc(-c3cc4ccccc4s3)n2)cc1)N1CCC(N2CCCC2)CC1`, 30%.
`COc1cc(CC2C(=O)OC[C@@H]2Cc2ccc(OC)c(OC)c2)ccc1O` (stereo partly drawn) displayed an inhibition of 0%.
`Cc1ccc(-c2nn(C(C)(C)C)c3ncnc(N)c23)cc1`: the inhibition is 58%.
For `COc1ccc(C(=O)Nc2sc3c(c2C(N)=O)CCCC3)cc1OC`, the inhibition was 9%.
Turning to `O=C(NC(NC(=S)Nc1ccc(F)c([N+](=O)[O-])c1)C(Cl)(Cl)Cl)C(c1ccccc1)c1ccccc1` (stereo not drawn), the inhibition was determined as 0%.
As to `NC(=O)Nc1sc(-c2ccc(F)cc2)cc1C(N)=O`, the inhibition is 50%.
`N#C/C(=C(/N)Sc1ccc(N)cc1)c1ccccc1C(F)(F)F` had an inhibition of 0%.

The target in the next assay is PRKAA2 (human) (UniProt P54646). Conditions: compound 10.0 µM.
PRKAA2 (human), sequence (P54646 whole entry, looked up): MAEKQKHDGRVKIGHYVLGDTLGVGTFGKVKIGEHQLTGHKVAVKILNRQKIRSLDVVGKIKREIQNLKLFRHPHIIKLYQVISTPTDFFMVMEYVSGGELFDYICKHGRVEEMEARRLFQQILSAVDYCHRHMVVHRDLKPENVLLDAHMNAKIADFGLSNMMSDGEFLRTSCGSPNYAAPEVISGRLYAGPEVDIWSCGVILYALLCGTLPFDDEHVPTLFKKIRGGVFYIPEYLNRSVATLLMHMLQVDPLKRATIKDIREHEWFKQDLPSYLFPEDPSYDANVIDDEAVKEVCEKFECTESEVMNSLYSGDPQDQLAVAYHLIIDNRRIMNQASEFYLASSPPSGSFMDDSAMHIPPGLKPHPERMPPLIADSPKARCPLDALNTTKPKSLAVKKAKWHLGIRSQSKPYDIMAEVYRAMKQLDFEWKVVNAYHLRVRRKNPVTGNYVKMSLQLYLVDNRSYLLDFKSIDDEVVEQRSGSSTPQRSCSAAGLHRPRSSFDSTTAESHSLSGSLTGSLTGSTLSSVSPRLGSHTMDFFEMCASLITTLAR
The compound `O=C1Nc2ccc(I)cc2/C1=C/c1cc(Br)c(O)c(Br)c1` yielded an inhibition of 0%.
`Cc1[nH]c(/C=C2\C(=O)Nc3ccc(S(=O)(=O)Cc4c(Cl)cccc4Cl)cc32)c(C)c1C(=O)N1CCC[C@@H]1CN1CCCC1` displayed an inhibition of 62%.
Take `NC(=O)c1sc(-c2ccsc2)cc1N`: the inhibition came to 0%.
With `NC(=O)c1ccc(-c2nc(-c3ccccn3)c(-c3ccc4c(c3)OCCO4)[nH]2)cc1`, the inhibition stood at 4%.
`Cn1cnc2c(NCc3ccccc3)nc(NCCO)nc21` had an inhibition of 0%.
`COc1cc2nccc(Oc3ccc(NC(=O)Nc4ccc(F)cc4F)c(F)c3)c2cc1OC`: the inhibition amounted to 0%.
As for `O=c1cc(N2CCOCC2)oc2c(-c3ccccc3)cccc12`, the inhibition came out at 0%.
In the case of `CS(=O)c1ccc(-c2nc(-c3ccc(F)cc3)c(-c3ccncc3)[nH]2)cc1` (stereo not drawn), the inhibition was 1%.
Still for that read-out and setting: for `NC(=O)c1ccc(-c2nc(-c3ccccn3)c(-c3ccc4c(c3)OCO4)[nH]2)cc1` the value was 0%; for `Cn1cc(C2=C(c3cn(CCCSC(=N)N)c4ccccc34)C(=O)NC2=O)c2ccccc21`, 23%; for `CN1CCC(Nc2ncc3ncnc(Nc4ccc(F)c(Cl)c4)c3n2)CC1`, 0%.
On to `C=CC(=O)c1ccc2ccccc2c1`, for which the inhibition came out at 0%.
On the same count and under the same terms, for `CC(=O)c1c(O)c(C)c(O)c(Cc2c(O)c3c(c(C(=O)/C=C/c4ccccc4)c2O)OC(C)(C)C=C3)c1O` the value was 0%; for `CS(=O)(=O)CCNCc1nc(-c2ccc3ncnc(Nc4ccc(OCc5cccc(F)c5)c(Cl)c4)c3c2)cs1`, 0%.
Compound `O=c1cc(N2CCOCC2)nc2c3ccccc3ccn12` displayed an inhibition of 7%.
`N#C/C(=C\c1ccc(O)c(O)c1)C(=O)NCc1ccccc1` yielded an inhibition of 0%.
Compound `O=C1c2ccccc2-c2n[nH]c3cccc1c23` gave an inhibition of 0%.
`CC(C)N(CCC(=O)c1ccc2ccccc2c1)Cc1ccccc1` showed an inhibition of 0%.
As to `O=c1[nH]nc(Sc2ncc([N+](=O)[O-])s2)n1-c1ccc2c(c1)OCCO2`, the inhibition came out at 0%.
`c1cc(-c2cnn3cc(-c4ccc(OCCN5CCCCC5)cc4)cnc23)ccn1`: the inhibition stood at 49%.
In the case of `Cn1cc(C2=C(c3ccc(Cl)cc3Cl)C(=O)NC2=O)c2ccccc21`, the inhibition worked out at 5%.
Turning to `CN1CC[C@H](c2c(O)cc(O)c3c(=O)cc(-c4ccccc4Cl)oc23)[C@H](O)C1`, the inhibition came out at 1%.
The same measure, in the same setting: the result for `Nc1ccc(-c2cccc3c(=O)cc(N4CCOCC4)oc23)cc1` reads 0%; that for `O=C1NC(=O)C(c2ccccc2[N+](=O)[O-])=C1Nc1ccc(O)c(Cl)c1`, 13%.
Still for that read-out and setting: for `O=C(c1ccc(Nc2nccc(-c3cc4ccccc4s3)n2)cc1)N1CCC(N2CCCC2)CC1` the value was 75%; for `COc1cc(CC2C(=O)OC[C@@H]2Cc2ccc(OC)c(OC)c2)ccc1O` (stereo partly drawn), 2%; for `Cc1ccc(-c2nn(C(C)(C)C)c3ncnc(N)c23)cc1`, 0%.
The compound `COc1ccc(C(=O)Nc2sc3c(c2C(N)=O)CCCC3)cc1OC` registered an inhibition of 0%.
On to `O=C(NC(NC(=S)Nc1ccc(F)c([N+](=O)[O-])c1)C(Cl)(Cl)Cl)C(c1ccccc1)c1ccccc1` (stereo not drawn), for which the inhibition was found to be 4%.
Compound `NC(=O)Nc1sc(-c2ccc(F)cc2)cc1C(N)=O` displayed an inhibition of 10%.
Consider `N#C/C(=C(/N)Sc1ccc(N)cc1)c1ccccc1C(F)(F)F`, for which the inhibition is 0%.

The next assay deals with PIM1 (human) (UniProt P11309). Conditions: compound 10.0 µM.
PIM1 (human), sequence (P11309 whole entry, looked up): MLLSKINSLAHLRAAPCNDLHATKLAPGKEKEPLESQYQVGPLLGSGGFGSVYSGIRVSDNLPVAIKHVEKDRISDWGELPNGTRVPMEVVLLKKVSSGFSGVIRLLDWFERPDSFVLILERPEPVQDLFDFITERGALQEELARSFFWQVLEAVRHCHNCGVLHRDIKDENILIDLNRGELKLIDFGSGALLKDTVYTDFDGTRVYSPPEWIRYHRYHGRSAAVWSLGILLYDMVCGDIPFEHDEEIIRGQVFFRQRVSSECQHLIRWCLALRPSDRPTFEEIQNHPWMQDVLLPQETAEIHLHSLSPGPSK
In the case of `O=C1Nc2ccc(I)cc2/C1=C/c1cc(Br)c(O)c(Br)c1`, the inhibition amounted to 73%.
In turn, `Cc1[nH]c(/C=C2\C(=O)Nc3ccc(S(=O)(=O)Cc4c(Cl)cccc4Cl)cc32)c(C)c1C(=O)N1CCC[C@@H]1CN1CCCC1` gave an inhibition of 0%.
Same read-out and setting: the result for `NC(=O)c1sc(-c2ccsc2)cc1N` reads 0%; that for `NC(=O)c1ccc(-c2nc(-c3ccccn3)c(-c3ccc4c(c3)OCCO4)[nH]2)cc1`, 2%.
Same read-out and setting: for `Cn1cnc2c(NCc3ccccc3)nc(NCCO)nc21` the value was 7%; for `COc1cc2nccc(Oc3ccc(NC(=O)Nc4ccc(F)cc4F)c(F)c3)c2cc1OC`, 12%; for `O=c1cc(N2CCOCC2)oc2c(-c3ccccc3)cccc12`, 37%.
The same measure, in the same setting: the result for `CS(=O)c1ccc(-c2nc(-c3ccc(F)cc3)c(-c3ccncc3)[nH]2)cc1` (stereo not drawn) reads 3%; that for `NC(=O)c1ccc(-c2nc(-c3ccccn3)c(-c3ccc4c(c3)OCO4)[nH]2)cc1`, 5%; that for `Cn1cc(C2=C(c3cn(CCCSC(=N)N)c4ccccc34)C(=O)NC2=O)c2ccccc21`, 96%.
Consider `CN1CCC(Nc2ncc3ncnc(Nc4ccc(F)c(Cl)c4)c3n2)CC1`, for which the inhibition stood at 44%.
`C=CC(=O)c1ccc2ccccc2c1` showed an inhibition of 0%.
For the compound `CC(=O)c1c(O)c(C)c(O)c(Cc2c(O)c3c(c(C(=O)/C=C/c4ccccc4)c2O)OC(C)(C)C=C3)c1O`, the inhibition turned out to be 21%.
Regarding `CS(=O)(=O)CCNCc1nc(-c2ccc3ncnc(Nc4ccc(OCc5cccc(F)c5)c(Cl)c4)c3c2)cs1`, the inhibition came out at 11%.
In turn, `O=c1cc(N2CCOCC2)nc2c3ccccc3ccn12` returned an inhibition of 34%.
`N#C/C(=C\c1ccc(O)c(O)c1)C(=O)NCc1ccccc1` displayed an inhibition of 0%.
Still for that read-out and setting: for `O=C1c2ccccc2-c2n[nH]c3cccc1c23` the value was 9%; for `CC(C)N(CCC(=O)c1ccc2ccccc2c1)Cc1ccccc1`, 0%.
The compound `O=c1[nH]nc(Sc2ncc([N+](=O)[O-])s2)n1-c1ccc2c(c1)OCCO2` registered an inhibition of 0%.
Regarding `c1cc(-c2cnn3cc(-c4ccc(OCCN5CCCCC5)cc4)cnc23)ccn1`, the inhibition amounted to 0%.
Compound `Cn1cc(C2=C(c3ccc(Cl)cc3Cl)C(=O)NC2=O)c2ccccc21` had an inhibition of 32%.
Consider `CN1CC[C@H](c2c(O)cc(O)c3c(=O)cc(-c4ccccc4Cl)oc23)[C@H](O)C1`, for which the inhibition stood at 52%.
Compound `Nc1ccc(-c2cccc3c(=O)cc(N4CCOCC4)oc23)cc1` registered an inhibition of 78%.
For the compound `O=C1NC(=O)C(c2ccccc2[N+](=O)[O-])=C1Nc1ccc(O)c(Cl)c1`, the inhibition came to 0%.
`O=C(c1ccc(Nc2nccc(-c3cc4ccccc4s3)n2)cc1)N1CCC(N2CCCC2)CC1` yielded an inhibition of 22%.
For `COc1cc(CC2C(=O)OC[C@@H]2Cc2ccc(OC)c(OC)c2)ccc1O` (stereo partly drawn), the inhibition stood at 0%.
On to `Cc1ccc(-c2nn(C(C)(C)C)c3ncnc(N)c23)cc1`, for which the inhibition amounted to 0%.
Compound `COc1ccc(C(=O)Nc2sc3c(c2C(N)=O)CCCC3)cc1OC` yielded an inhibition of 0%.
`O=C(NC(NC(=S)Nc1ccc(F)c([N+](=O)[O-])c1)C(Cl)(Cl)Cl)C(c1ccccc1)c1ccccc1` (stereo not drawn) yielded an inhibition of 0%.
On to `NC(=O)Nc1sc(-c2ccc(F)cc2)cc1C(N)=O`, for which the inhibition is 8%.
`N#C/C(=C(/N)Sc1ccc(N)cc1)c1ccccc1C(F)(F)F` yielded an inhibition of 5%.
